Series [1] concerns thrombocyte aggregation (platelet-rich plasma). Description: Collagen-induced thrombocyte aggregation in vitro (rats). The format is cell-based, rat. The settings on record: for IC50: rat PRP, collagen-induced, 3 min incubation, end concentration lowering amplitude by 50%, read-out: C50-value (arith. M. + S.D.). The protocol: Collagen-Induced Thrombocyte Aggregation In Vitro (Rats) Method: The test was carried out according to the method of BORN (Nature, 194, 927-929, 1962). As blood donors, there served male Sprague-Dawley SIV 50 rats with a body weight of 200 g. The blood sampling took place, under ether narcosis, from the retroorbital venous complex. Nine parts of blood were mixed with one part of 3.8% w/v tri-Na-citrate solution. After low speed centrifuging of the mixture at room temperature, the platelet-rich plasma (PRP, corresponding to erythrocyte-free supernatant) was removed and adjusted to a standard concentration of […]. As measurement instrument, there served an universal aggregometer (Braun, Melsungen), coupled with an Eppendorf photome[…] (Netheler and Hinz, Hamburg). In the investigation, 700 μl amounts of PRP were equilibrated in the aggregometer for five minutes at 37° C. and then mixed with 58 μl of the test substance solution or of a 0.9% NaCl solution (corresponding to the blank). After an incubation time of three minutes, the addition of 35 μl collagen suspension (collagen reagent HORM®, Hormon Chemie, Munchen) initiated the aggregation. A compensation recorder registered, in the following 15 minutes, the change of the transmission. The largest change of the transmission occurring in the period of time was called the amplitude (Amp) of the aggregation curve. Aggregation-inhibiting substances bring about a reduction of this amplitude; the inhibitory action (E) of a substance is calculated according to the following formula: E=[(Amp)blank -[…] ]×100(%) Dosage-action curves are produced on the basis of which their C50 values could be calculated. The C50 value gives the end concentration of a substance in the test system which leads to a lowering of the amplitude by 50%.

A short description of series [2]: Acute toxicity in mice, seven day values. The format is in vivo. The note with it: mouse, in vivo, po, male NMRI mice, intragastrally. The protocol:
(§1) Investigation of the Acute Toxicity Method:
(§2) The determination of the acute toxicity was carried out on male mice (NMRI) with a body weight of 18 to 23 g. All experimental animals were fasted for 20 hours before commencement of the investigation. Water was available ad libitum. Four animals belonged to each dosage group. The dosage sequence was logarithmic. The test substances were administered either in the form of aqueous solutions or as suspensions in 0.8% Methocel. The administered volumes amounted, in the case of subcutaneous administration, to 10 ml/kg body weight, in the case of intragastral administration to 20 ml/kg body weight.

Series [3] concerns carrageenin edema of the rat (paw edema). Kind of series: Antiphlogistic action on carrageenin edema of rats. The settings on record: 3 h after carrageenin. The format is in vivo. The protocol:
Investigation of the Antiphlogistic Action on Carrageenin Edema of Rats Method: Experimental animals were male rats (SIV 50), fasted for 20 hours, with a body weight of 110-160 g. Water was available ad libitum. After determination of the initial value of the paw volume of the right hind extremity, the test substances were administered intragastrally as suspension in 0.8% Methocel. Ten animals were used per dosage. The volume of administration amounted to 20 ml/kg body weight. The paw volume was measured plethysmometrically. Sixty minutes after intragastral administration of the test substances, 0.1 ml of a 1% carrageenin solution was injected subplanatary into the right hind paw. One and three hours after injection of the carrageenin, the paw volume of the oedematous paw was measured. The increase of the paw volume of the substance-treated animals after three hours was compared with that in the case of the control animals and the inhibition of the paw edema by the test substance was calculated as a percentage thereof.

In another series the test system is yeast fever of the rat. Kind of series: Antipyretic action on yeast fever of the rat. The format is in vivo. The settings on record: 12% yeast 20 ml/kg SC, rectal. The protocol:
Investigation of the Antipyretic Action on Yeast Fever of the Rat Method: Experimental animals were male rats (SIV 50), fasted for 20 hours, with a body weight of 115-165 g. For the production of an elevated body temperature, the animals received, 18 hours before administration of the test substances, 20 ml/kg body of a 12% dry yeast suspension subcutaneously in two to three depots. A control group received the corresponding volume of physiological NaCl solution injected subcutaneously. Ten animals were used per dosage. After three preliminary measurementds of the body temperature on the experimental day in 30-minute intervals, the test substance was administered intragastrally to the animals treated with yeast. The volume of administration amounted to 20 ml/kg body weight. A second control group treated with yeast, as well as the control group treated the previous day with physiological NaCl solution, received the corresponding vehicle instead of test substance. The body temperature of the experimental animals was measured rectally by means of thermocouple sensor 30, 60 minutes and then, in each case, hourly up to a total of five hours after substance administration.

Series [4] concerns stomach ulcer of the rat induced by indomethacin. Description: Ulcer-protective action on stomach ulcer of the rat induced by indomethacin. The format is in vivo. The note with it: for Ulcer Inhibition in %: indomethacin 40 mg/kg. The procedure:
Investigation of the Ulcer-Protective Action on Stomach Ulcer of the Rat Induced by Indomethacin. Method: Experimental animals were male rats (SIV 50), fasted for 20 hours, with a body weight of 150-200 g. Water was available ad libitum. 40 mg/kg indomethacin and the substance to be tested, as suspension in 0.8% Methocel, were simultaneously administered to the animals intragastrally. The control animals only received the corresponding dosage of indomethacin. Ten animals were used per experimental group. The administration volume amount to 10 ml/kg body weight. The animals were sacrificed five hours after administration. After removal of the stomachs and opening of the curvatura major, these were investigated with a stereo magnifying glass for the presence of ulcers. The assessment of the ulcers took place according to a point scheme proposed by M. Chaumontet et al. (Arzneim.-Forsch., 28, 2119, 1978). The ulcer index was calculated herefrom. The ulcer index of the animals treated with indomethacin and test substance was compared with that of the control animals only treated with indomethacin and the ulcer inhibition calculated therefrom in percent.

The next series relates to male mice (NMRI). Kind of series: Acute toxicity in mice, seven day values. The format is in vivo. The note with it: intragastrally, 10080 min. The protocol:
as §1, §2

Where a name gives a salt, the structure may show the parent alone. Read-outs that look alike come from different tables or passages of the source.

For `CCSC1=C(C#N)C(c2ccccc2)(c2ccccc2)C(=O)N1CCCN(C)C` [Compound 3, 2-ethylthio-1-(3-dimethylaminopropyl)-5-oxo-4,4-diphenyl-2-pyrroline-3-carbonitrile hydrochloride], the IC50 in series [1] (0.05 h) was determined as 150 ± 40 µM.
By LD50 is commonly meant the dose at which mortality reaches 50%. High values mean lower toxicity, low ones greater toxicity. Take `CC(C)SC1=C(C#N)C(c2ccccc2)(c2ccccc2)C(=O)N1CCCN(C)C` [Compound 8, 2-Isopropylthio-1-(3-dimethylaminopropyl)-5-oxo-4,4-diphenyl-2-pyrroline-3-carbonitrile]: the IC50 in series [1] (0.05 h) amounted to 270 ± 50 µM. The compound also displayed an LD50 at 168 h in series [2] of 1400 mg/kg.
Take `CCSC1=C(C#N)C(c2ccccc2)(c2ccccc2)C(=O)N1CCCN1CCCCC1.O=C(O)C(=O)O` [Compound 15, 2-ethylthio-5-oxo-4,4-diphenyl-1-(3-piperidinopropyl)-2-pyrroline-3-carbonitrile oxalate]: the “Inhibition of Paw Edema in %” value in series [3] (150 mg/kg intragastrally) was determined as 39%. The same compound came in with a body temperature, 60 in the series with yeast fever of the rat (60 minutes after 150 mg/kg IG) of 36.6 °C. Also, the body temperature, 120 in the series on yeast fever of the rat (120 minutes after 150 mg/kg IG) was found to be 35.8 °C. Moreover, the body temperature, 180 in the series with yeast fever of the rat (180 minutes after 150 mg/kg IG) worked out at 35.9 °C. In the series with yeast fever of the rat (240 minutes after 150 mg/kg IG), this compound showed a body temperature, 240 of 36.4 °C. This compound showed a body temperature, 300 in the series with yeast fever of the rat (300 minutes after 150 mg/kg IG) of 37 °C. The LD50 at 168 h in series [2] stood at 700 mg/kg. Also, the “Ulcer Inhibition in %” value in series [4] (150 mg/kg intragastrally) is 29%.
`CCSC1=C(C#N)C(c2ccccc2)(c2ccccc2)C(=O)N1CCCN` [Compound 17a, 1-(3-Aminopropyl)-2-ethylthio-5-oxo-4,4-diphenyl-2-pyrroline-3-carbonitrilehydrochloride]: the IC50 in series [1] (0.05 h) came to 60 µM. Moreover, the aggregation-inhibiting properties entry in series [1] (in words) was “the most effective representative”.
Take `CSC1=C(C#N)C(c2ccccc2)(c2ccccc2)C(=O)N1CCCN1CCCCC1` [Compound 12, 2-methylthio-5-oxo-4,4-diphenyl-1-(3-piperidinopropyl)-2-pyrroline-3-carbonitrile]: in series [1] (0.05 h), the IC50 was 150 ± 20 µM. In series [2], this compound showed an LD50 at 168 h of more than 1600 mg/kg.
For the compound `CCSC1=C(C#N)C(c2ccccc2)(c2ccccc2)C(=O)N1CCCN(CC)CC` [Compound 16, 1-(3-diethylaminopropyl)-2-ethylthio-5-oxo-4,4-diphenyl-2-pyrroline-3-carbonitrile hydrochloride], the IC50 in series [1] (0.05 h) came out at 140 ± 60 µM.
As to `CCSC1=C(C#N)C(c2ccccc2)(c2ccccc2)C(=O)N1CCN1CCCCC1.Cl` [Compound 1, 2-Ethylthio-5-oxo-4,4-diphenyl-1-(2-piperidinoethyl)-2-pyrroline-3-carbonitrile hydrochloride], the “Inhibition of Paw Edema in %” value in series [3] (125 mg/kg intragastrally) came out at 36%. The 50% lethal dose (LD50) at 168 h in series [2] came to 1600 mg/kg.
In the case of “1-(2-dimethylaminopropyl)-2-methylthio-5-oxo-4,4-diphenyl-2-pyrroline-3-carbonitrile [Compound 6]”, the IC50 in series [1] worked out at 190 ± 40 µM. In series [3] (125 mg/kg intragastrally), the “Inhibition of Paw Edema in %” value is 36%. This compound yielded a body temperature, 30 with yeast fever of the rat (30 minutes after 250 mg/kg IG) of 37 °C. The body temperature, 60 with yeast fever of the rat (60 minutes after 250 mg/kg IG) is 36 °C. The body temperature, 120 with yeast fever of the rat (120 minutes after 250 mg/kg IG) was determined as 35.2 °C. For the same compound, the body temperature, 180 in the series with yeast fever of the rat (180 minutes after 250 mg/kg IG) is 34.7 °C. Moreover, in the series with yeast fever of the rat (240 minutes after 250 mg/kg IG), the body temperature, 240 turned out to be 35.1 °C. Also, the body temperature, 300 in the series on yeast fever of the rat (300 minutes after 250 mg/kg IG) was determined as 35.6 °C. In the series with male mice (NMRI), this compound registered an LD50 of 1200 mg/kg.
`CCSC1=C(C#N)C(c2ccccc2)(c2ccccc2)C(=O)N1CCCN1CCOCC1` [Compound 5, 2-ethylthio-1-(3-morpholinopropyl)-5-oxo-4,4-diphenyl-2-pyrroline-3-carbonitrile]: the entries for the “Inhibition of Paw Edema in %” value in series [3] (37.5 mg/kg intragastrally) and in series [3] (75 mg/kg intragastrally) were 22% and 45%, respectively. Also, the 50% lethal dose (LD50) at 168 h in series [2] is more than 1600 mg/kg. Also, the “Ulcer Inhibition in %” value in series [4] (100 mg/kg intragastrally) is listed as 52%. The ulcer-protective action entry in series [4] (in words) is recorded as “the most effective representative”.
Regarding `CCCSC1=C(C#N)C(c2ccccc2)(c2ccccc2)C(=O)N1CCN(CC)CC` [Compound 9, 1-(2-Diethylaminoethyl)-5-oxo-4,4-diphenyl-2-propylthio-2-pyrroline-3-carbonitrile], in series [4] (250 mg/kg intragastrally), the “Ulcer Inhibition in %” value stood at 29%.
In the case of `CSC1=C(C#N)C(c2ccc(N(C)C)cc2)(c2cccnc2)C(=O)N1CCCN(C)C` (centres unmarked) [Compound 21, 4-(4-Dimethylaminophenyl)-1-(3-dimethylaminopropyl)-2-methylthio-5-oxo-4-(3-pyridyl)-2-pyrroline-3-carbonitrile], the IC50 in series [1] (0.05 h) was 160 ± 20 µM. Also, in series [2], the LD50 at 168 h stood at 1200 mg/kg.

The values above are taken from patent US4499089A, “2-Alkylthio-1-aminoalkyl-2-pyrroline-3-carbonitriles, compositions and use” (Warner-Lambert Company, priority 1983, dated 1985).
